We go through three compounds from patent publication US4599346A, “Propan-2-ol derivatives, a process for their production and medicaments containing these compounds” (Ludwig Heumann & Co., GmbH, priority 1983, dated 1986).

For data set [1] the following is noted: background statement; result in words; cited from earlier work.
A further data set addresses T1, histamine-H2 -receptors (Cavia porcellus, UniProt P47747).
T1 construct: in vitro on the isolated atrium of guinea pigs; from tissue; host or cells: isolated atrium of guinea pigs
Kind of data set: H2-antagonistic activity: pA2 values in vitro on the isolated atrium of guinea pigs. The text has this: J. Pharmacol. Chemother.", 27, 427 (1966) and Black et al., "Nature", 236, 385 (1971)].
A recognized method of measuring H2 -antagonistic activity is based on determination of the pA2 -values in vitro on the isolated atrium of guinea pigs

T1 sequence (P47747 whole entry): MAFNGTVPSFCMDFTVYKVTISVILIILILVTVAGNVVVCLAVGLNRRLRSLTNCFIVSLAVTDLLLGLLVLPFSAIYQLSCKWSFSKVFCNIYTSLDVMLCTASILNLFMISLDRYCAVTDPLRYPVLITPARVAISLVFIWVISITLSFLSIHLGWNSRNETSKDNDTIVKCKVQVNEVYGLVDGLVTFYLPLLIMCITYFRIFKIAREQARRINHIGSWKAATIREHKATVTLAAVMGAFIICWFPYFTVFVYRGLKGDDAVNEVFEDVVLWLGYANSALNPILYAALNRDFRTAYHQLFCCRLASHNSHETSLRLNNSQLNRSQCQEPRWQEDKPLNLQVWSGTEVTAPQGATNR

On to `CN/C(=N/CCSCc1nc[nH]c1C)NC#N` [Cimetidine], for which the half life entry in data set [1] is “relatively short half life”. As a reminder, the Kb is the equilibrium dissociation constant of an antagonist, usually derived from a functional assay. Read a low Kb as higher antagonist affinity. For the compound `Nc1n[s+]([O-])nc1NCC(O)COc1cccc(CN2CCCCC2)c1` (stereo not drawn) [Example 1, 4-amino-3-[2-hydroxy-3-[3-(1-piperidinylmethyl)-phenoxy]propyl]-amino-1,2,5-thiadiazole-1-oxide], the Kb on histamine-H2 -receptors was 0.049 µM.

At histamine-H2 -receptors, `Nc1c(NCC(O)COc2cccc(CN3CCCCC3)c2)c(=O)c1=O` (stereo not drawn) [Example 2, 2-amino-1-[2-hydroxy-3-[3-(1-piperidinylmethyl)-phenoxy]propyl]-aminocyclobut-1-ene-3,4-dione] gave a Kb of 0.0724 µM. This Kb and that of the compound before are within 1.5-fold of each other.
